The results in this text go back to ChEMBL document CHEMBL4673316, “Synthesis and evaluation of a UMI-77-based fluorescent probe for selective detecting Mcl-1 protein and imaging in living cancer cells” (Bioorg Med Chem, 2021).

Calls of active or inactive are those of the source. No cut-off for these calls is given here.

Data set [1] deals with Apoptosis regulator Bcl-2 (Homo sapiens, UniProt P10415). As to the kind of experiment: Inhibition of Bcl2 (unknown origin) using 5-FAM-Bid-BH3 as substrate incubated for 30 mins followed by substrate addition and measured after 20 mins by fluorescence polarization assay.
The target of data set [2] is T1, Induced myeloid leukemia cell differentiation protein Mcl-1 (Homo sapiens, UniProt Q07820). As to the kind of experiment: Inhibition of Mcl-1 (unknown origin) using 5-FAM-Bid-BH3 as substrate incubated for 30 mins followed by substrate addition and measured after 20 mins by fluorescence polarization assay.
Data set [3] can be described thus: Drug localization in mitochondria of human PC-3 cells at 5 uM incubated for 30 mins by MitoTracker Red CMXRos dye and Hoechst 33342 nuclear dye based fluorescence microscopic analysis. It counts as ADME. To be noted: pc-3, 0.5 h.
Data set [4] addresses T1, Induced myeloid leukemia cell differentiation protein Mcl-1. As to the kind of experiment: Binding affinity to Mcl1 in human PC-3 cells at 5 uM incubated for 30 mins in presence of UMI-77 by flow cytometry analysis. It counts as cell-based.
The target is the same in data set [5]. As to the kind of experiment: Binding affinity to Mcl1 in human PC-3 cells at 5 uM incubated for 30 mins in presence of UMI-77 by fluorescence microscopy analysis. It counts as cell-based.
For data set [6] the target is unchanged. As to the kind of experiment: Binding affinity to Mcl1 in HUVEC cells at 5 uM incubated for 30 mins by fluorescence microscopy analysis. It counts as cell-based.
The target is the same in data set [7]. As to the kind of experiment: Binding affinity to Mcl1 in human PC-3 cells at 5 uM incubated for 30 mins by fluorescence microscopy analysis. Format: cell-based.
A further data set has as its system HUVEC. As to the kind of experiment: Cytotoxicity against HUVEC cells assessed as reduction in cell viability at 5 to 50 uM incubated for 1 hr by CCK8 assay. To be noted: human, dose 5-50 µM. It counts as cell-based.
The subject of the next data set is PC-3. As to the kind of experiment: Cytotoxicity against human PC-3 cells assessed as reduction in cell viability at 5 to 50 uM incubated for 1 hr by CCK8 assay. To be noted: pc-3, 1 h, dose 5-50 µM. It counts as cell-based.
Data set [8] is filed under the species Homo sapiens. As to the kind of experiment: Selectivity index, ratio of binding for BSA (unknown origin) to binding for Mcl-1 (unknown origin).
For data set [9], the species on record is Homo sapiens. As to the kind of experiment: Selectivity index, ratio of Ki for Bcl-2 (unknown origin) to Ki for Mcl-1 (unknown origin). The note with it: dose 5.0 µM, time 20.0 min.
Data set [10] addresses T1, Induced myeloid leukemia cell differentiation protein Mcl-1. As to the kind of experiment: Binding affinity to Mcl1 (unknown origin) at 5 uM incubated for 20 mins in presence of 5 to 100 uM UMI-77 by fluorescence based assay.
The target is the same in data set [11]. As to the kind of experiment: Binding affinity to Mcl1 (unknown origin) at 5 uM incubated for 20 mins by fluorescence based assay relative to control.
The target is the same in data set [12]. As to the kind of experiment: Binding affinity to Mcl1 (unknown origin) at 5 uM incubated for 20 mins by fluorescence based assay (reference value: 0.66 %).
For data set [13] the target is unchanged. As to the kind of experiment: Binding affinity to Mcl1 (unknown origin) at 5 uM incubated for 20 mins by fluorescence based assay.
Data set [14] in a line: Effect on human PC-3 cells with knocked out Mcl1 gene at 5 uM incubated for 30 mins by fluorescence microscopic analysis. Format: ADME, cell-based. The note with it: pc-3, 0.5 h.
Data set [15] deals with T1, Induced myeloid leukemia cell differentiation protein Mcl-1. As to the kind of experiment: Binding affinity to Mcl1 in human PC-3 cells at 5 uM incubated for 30 mins by flow cytometry analysis. It counts as cell-based.

T1 sequence (Q07820 whole entry): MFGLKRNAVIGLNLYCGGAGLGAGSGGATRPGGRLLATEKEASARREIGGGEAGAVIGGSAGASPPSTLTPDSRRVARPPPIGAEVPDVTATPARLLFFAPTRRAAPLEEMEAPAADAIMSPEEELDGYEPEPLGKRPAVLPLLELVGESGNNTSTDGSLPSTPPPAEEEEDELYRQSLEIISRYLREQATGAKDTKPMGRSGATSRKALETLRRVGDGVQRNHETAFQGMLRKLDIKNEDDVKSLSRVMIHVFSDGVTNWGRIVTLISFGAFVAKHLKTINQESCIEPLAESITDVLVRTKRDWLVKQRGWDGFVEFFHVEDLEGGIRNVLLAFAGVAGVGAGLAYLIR
Sequence of Apoptosis regulator Bcl-2 (P10415 whole entry): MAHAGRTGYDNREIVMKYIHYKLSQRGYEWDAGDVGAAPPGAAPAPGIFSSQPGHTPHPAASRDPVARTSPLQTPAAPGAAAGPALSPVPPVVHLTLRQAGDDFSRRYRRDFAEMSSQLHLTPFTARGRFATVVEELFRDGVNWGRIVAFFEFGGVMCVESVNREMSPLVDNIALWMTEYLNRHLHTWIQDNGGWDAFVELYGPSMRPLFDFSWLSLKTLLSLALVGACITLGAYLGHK

As to `O=C(O)CSc1cc(NS(=O)(=O)c2ccc(Br)cc2)c2ccccc2c1O`, the Ki in [1] stood at 11000 nM; in [2] it was 210 nM.

In the case of `CN(C)c1cccc2c(S(=O)(=O)Nc3cc(SCC(=O)O)c(O)c4ccccc34)cccc12`, the Drug uptake result in data set [3] is “Active”. The outcome in data set [4], in [5], in data set [6] and in data set [10] was inactive. Further, the outcome in [7], in data set [13] and in data set [15] was Active. In addition, the Activity entry in the data set on HUVEC was “Non-Toxic”; in the data set with PC-3, “Non-Toxic”; in [12], 6.47%; in data set [14], “Non-Toxic”. For the same compound, the Ratio in the data set listed under Homo sapiens [8] stood at 2. Also, the Ratio Ki in the data set filed under Homo sapiens [9] was 5. Moreover, the fold change (FC) in data set [11] worked out at 5. Besides, the Ki in data set [1] is 2200 nM; in data set [2] it was 120 nM.
